Test results from US20180250308A1, “NR2B SELECTIVE NMDA-RECEPTOR ANTAGONISTS FOR TREATMENT OF IMMUNE-MEDIATED INFLAMMATORY DISEASES” (WESTFALISCHE WILHELMS-UNIVERSITAT MUNSTER, priority 2015, published 2018).

Experiments:
[1] = biological target: T1, σ1 receptor (Cavia porcellus, UniProt Q60492); assay: Binding assay with [3H]-(+)-pentazocine, σ1 receptor; conditions: guinea pig brain membranes, read-out: affinity to the σ1 receptor
T1 construct: Five guinea pig brains (Harlan Winkelmann, Borchen, Germany) were homogenized; tissue Harlan Winkelmann, Borchen, Germany; host or cells: guinea pig brain membrane preparation
T1 sequence (Q60492 whole entry): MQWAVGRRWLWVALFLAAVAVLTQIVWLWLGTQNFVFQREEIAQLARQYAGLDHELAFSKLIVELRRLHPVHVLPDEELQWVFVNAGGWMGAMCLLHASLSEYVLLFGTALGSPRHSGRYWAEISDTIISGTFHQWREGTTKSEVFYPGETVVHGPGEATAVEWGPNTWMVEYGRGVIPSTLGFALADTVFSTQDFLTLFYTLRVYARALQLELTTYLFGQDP
Experimental: Five guinea pig brains (Harlan Winkelmann, Borchen, Germany) were homogenized with the potter (500-800 rpm, 10 up-and-down strokes) in 6 volumes of cold 0.32 M sucrose. […] This procedure was repeated twice.
The incubation was terminated by rapid filtration through the presoaked filtermats using a cell harvester.

[2] = biological target: T2, polyamine binding site of the NR2B subunit of the NMDA receptor (Homo sapiens, UniProt Q05586+Q13224); assay: Filtration-based receptor binding assay with [3H]-Ifenprodil, NR2B subunit; conditions: membranes of L(tk-) cells expressing NR1-1a/NR2B, Ki by Cheng-Prusoff, mean ± SEM, read-out: affinity to the NR2B binding site of the NMDA receptor
T2 construct: host or cells: mouse L(tk-) cells; expression induced with dexamethasone, then membrane homogenate prepared
T2 sequence (Q13224 27-1484, other chains not shown): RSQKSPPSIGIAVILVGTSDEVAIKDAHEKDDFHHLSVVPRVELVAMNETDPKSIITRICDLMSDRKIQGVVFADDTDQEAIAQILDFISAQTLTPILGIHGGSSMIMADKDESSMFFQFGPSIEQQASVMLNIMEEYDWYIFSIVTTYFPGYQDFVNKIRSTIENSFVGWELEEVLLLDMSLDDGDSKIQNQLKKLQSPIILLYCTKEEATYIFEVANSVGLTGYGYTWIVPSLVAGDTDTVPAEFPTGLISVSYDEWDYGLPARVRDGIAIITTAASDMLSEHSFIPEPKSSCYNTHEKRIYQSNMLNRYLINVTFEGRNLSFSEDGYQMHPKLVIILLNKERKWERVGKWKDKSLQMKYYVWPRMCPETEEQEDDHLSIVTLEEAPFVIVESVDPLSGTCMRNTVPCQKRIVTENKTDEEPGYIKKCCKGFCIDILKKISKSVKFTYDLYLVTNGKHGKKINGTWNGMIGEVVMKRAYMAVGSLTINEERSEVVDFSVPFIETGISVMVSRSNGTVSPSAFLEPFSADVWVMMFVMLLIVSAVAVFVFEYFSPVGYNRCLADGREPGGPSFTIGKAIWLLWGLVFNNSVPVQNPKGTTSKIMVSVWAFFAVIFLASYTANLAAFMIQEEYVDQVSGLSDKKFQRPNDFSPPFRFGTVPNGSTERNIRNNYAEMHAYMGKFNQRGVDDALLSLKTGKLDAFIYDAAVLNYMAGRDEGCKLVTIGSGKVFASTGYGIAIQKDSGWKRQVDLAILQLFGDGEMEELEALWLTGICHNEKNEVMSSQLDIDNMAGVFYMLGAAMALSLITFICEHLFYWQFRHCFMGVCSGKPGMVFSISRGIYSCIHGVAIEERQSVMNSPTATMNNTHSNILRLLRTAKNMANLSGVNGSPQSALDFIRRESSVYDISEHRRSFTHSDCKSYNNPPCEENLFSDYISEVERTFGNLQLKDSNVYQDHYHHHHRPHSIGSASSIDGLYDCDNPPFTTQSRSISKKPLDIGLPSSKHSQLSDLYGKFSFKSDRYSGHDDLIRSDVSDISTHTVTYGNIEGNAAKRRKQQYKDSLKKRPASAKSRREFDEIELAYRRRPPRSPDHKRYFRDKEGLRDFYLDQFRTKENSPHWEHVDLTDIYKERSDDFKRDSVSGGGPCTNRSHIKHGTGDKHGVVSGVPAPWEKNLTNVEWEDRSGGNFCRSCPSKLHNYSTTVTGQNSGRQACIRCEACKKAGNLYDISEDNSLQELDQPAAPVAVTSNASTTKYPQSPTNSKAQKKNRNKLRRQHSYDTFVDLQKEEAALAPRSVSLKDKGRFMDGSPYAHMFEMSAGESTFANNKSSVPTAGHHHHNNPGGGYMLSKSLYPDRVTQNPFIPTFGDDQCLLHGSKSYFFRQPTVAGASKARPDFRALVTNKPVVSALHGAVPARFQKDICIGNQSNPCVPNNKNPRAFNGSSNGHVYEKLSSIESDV
Experimental: The determination was performed using a filtration-based receptor binding assay on 96-well-multiplates for the polyamine binding site of the NR2B subunit of the NMDA receptor using [^3H]-Ifenprodil as radioligand.
Mouse L(tk-) cells stably transfected with the dexamethasone-inducible eukaryotic expression vectors pMSG NR1-1a, pMSG NR2B in a 1:5 ratio were a generous gift from D. […] Steinhilber (Department of Pharmacy, University of Frankfurt, Germany). The transformed L(tk-) cells were grown in Modified Earl's Medium (MEM) containing 10% of standardized FCS (Biochrom AG, Berlin, Germany). The expression of the NMDA receptor at the cell surface was induced after the cell density of the adherent growing cells had reached approximately 90% of confluency. […]
For the binding assay, the cell pellet was resuspended in PBS buffer and the number of cells was determined using an improved Neubauer's counting chamber (VWR, Darmstadt, Germany). […]
The competitive binding assay was performed with the radioligand [^3H]-Ifenprodil (60 Ci/mmol; Perkin Elmer) using standard 96-well-multiplates (Diagonal, Muenster, Germany). […] The bound radioactivity trapped on the filters was counted in the scintillation analyzer (Microbeta Counter, Perkin Elmer). […] The non-specific binding was determined with 10 μM unlabeled Ifenprodil. […]

- Ki [1]: 194 nM
- Ki [2]: 15.3 ± 1.2 nM
Structure (SMILES): COc1ccc2c(c1)CCN(CCCCc1ccccc1)CC2O (centres unmarked) [formula (4)]
